Assay results taken from patent US20240024494A1, “SMALL-MOLECULE CONJUGATE AND USE THEREOF” (SHANGHAI MEWSGEN BIOTECHNOLOGY CO., LTD, priority 2020, published 2024).
Like-named read-outs stand apart in the source and are kept apart here.

Tests used:
[1] = tested on: SHG44 (human glioma cells); type: cell-based; settings: 72 h
Excerpt: (§1) A part of the compounds of the examples of the present disclosure were subjected to a tumor cell proliferation inhibition test by using an MTT method (e.g. Pharmacological Research Method of New Drug, 2007: 242-243, edited by Lu Qiujun).
(§2) A cell strain was selected from KYSE-150 (human esophageal squamous carcinoma cells), MGC803 (human gastric carcinoma cells), and SHG44 (human glioma cells), and frozen and passaged by a pharmacological laboratory of Shanghai Institute of Pharmaceutical Industry. A culture solution was DMEM+10% FBS+double antibody.
(§3) In-vitro activity test: 100 μL of a cell suspension at a concentration of 4-5×10^4/mL was added to each well of a 96-well plate, and placed in a 5% CO2 incubator at 37° C. After 24 h, a sample solution was added at 10 μL/well, double duplicate wells were set, and a reaction was performed at 37° C. with 5% CO2 for 72 h. 20 μL of 5 mg/ml of an MTT solution was added into each well and reacted for 4 h, a dissolving solution was added at 100 μL/well, the mixture was placed in an incubator, and after dissolution, an OD value at 570 nm was measured with a full-wavelength multifunctional microplate reader. An inhibition rate (IR) and a median inhibitory concentration (IC50) were calculated by using an Excel software.
(§4) The inhibition rate (IR %) of the drug on cell growth was calculated according to the following equation: […]

[2] = tested on: MGC803 (human gastric carcinoma cells); type: cell-based; settings: 72 h
Excerpt: as §1, §2, §3, §4

[3] = tested on: KYSE-150 (human esophageal squamous carcinoma cells); type: cell-based; settings: 72 h
Excerpt: as §1, §2, §3, §4

[4] = In-vivo antitumor activity test in human stromal tumor SHG44 (subcutaneous tumor block in nude mice); set-up: species or system BALB/C nude mice; settings: SHG44; 10 mg/kg, Ipx5 each week for 2 continuous weeks; d22; in g (unit assumed)
Protocol: (§5) Animals: BALB/C nude mice (SPF grade), male, and 18-20 g. The compounds were firstly added with DMSO at a total amount of 4%, then added with Tween-80 at a total amount of 2% for assisting dissolution, then added with PEG300 at a total amount of 5%, and finally added with sterilized normal saline to be prepared into a solution at 1 mg/mL. Idasanutlin was firstly added with DMSO at a total amount of 4%, then added with Tween-80 at a total amount of 2% for assisting dissolution, then added with PEG300 at a total amount of 5%, and finally added with sterilized normal saline to be prepared into a solution at 2.5 mg/mL.
(§6) A well-grown human stromal tumor SHG44 mass was taken and aseptically cut into uniform small blocks of about 3 mm in size, and a right axilla of each mouse was subcutaneously inoculated with one block through a trocar. […] The animals were regrouped according to a tumor size. The animals with too large and too small tumors were sifted out. An average tumor volume in each group was approximately the same. An administration was started according to the following solution with an administration volume of 0.2 mL/20 g body weight. A long diameter a (mm) of the tumor and a short diameter b (mm) vertical to the tumor were measured by a digital display electronic caliper 2 times a week from day 9 of the inoculation. A tumor volume was calculated by the formula: TV=ab^2/2, and a relative tumor volume was calculated by the formula: RTV=Vt/Vo, wherein Vo was the obtained tumor volume measured at a cage separation (i.e. d1) and Vt was the tumor volume measured at each time. The animals were sacrificed 30 days after the inoculation (d22) and weighed, tumor mass was obtained by dissection and weighed, and the results were determined according to the following formula: […]

[5] = tested on: HCT116 (human colon carcinoma cells); assay: Tumor cell proliferation inhibition test, CCK-8 method (Example 19); type: cell-based
Protocol: (§7) A part of the compounds prepared in the examples of the present disclosure were subjected to a tumor cell proliferation inhibition test by using a CCK-8 method. A cell line HCT116 (human colon carcinoma cells) and SW1990 (human pancreatic carcinoma cells) were purchased from Shanghai Meixuan Technology Co., Ltd. Samples (a part of the compounds prepared in the examples) were dissolved in DMSO (Merck), prepared into a concentration of 10 mM, and finally triply diluted in DMEM or McCoy's 5A 1640 medium to 8 concentration gradients. A cell culture solution was collected when a cell culture met a test requirement, 10 μL of the cell culture solution was uniformly coated on a cell counting plate, cells were counted for 3 times under a microscope, and a cell density was calculated by taking an average value; and a 96-well plate (Corning, #3599) was taken, 200 μL of the cell culture solution was added into each well for cell inoculation at a cell concentration of 6×10^3 cells per well, and the inoculated 96-well plate was incubated in a cell incubator containing 5% CO2 at 37° C. for 24 h. An old culture medium was removed by suction, 200 μL of the triply diluted sample DMEM or McCoy's 5A 1640 medium at an initial concentration of 10 μmol/L was added to each well, the DMSO content was controlled to be 1%, three duplicate wells were set, PBS was used as a blank control, and the plate was incubated in the incubator for 72 h. The original DMEM or McCoy's 5A 1640 medium in the 96-well plate and a PBS buffer in a final row were sucked out, a prepared CCK-8 solution (90% DMEM or McCoy's 5A 1640 medium+10% CCK-8) was added, the mixture was incubated in an incubator, and an absorbance was read by using a Biotek microplate reader. Cell growth inhibition rate IC %=(blank control well OD value−administration well OD value)/blank control well OD value×100%.

[6] = tested on: SW1990 (human pancreatic carcinoma cells); assay: as above; type: cell-based
Protocol: as §7

[7] = tested on: human esophageal cancer KYSE-150; assay: In-vivo antitumor activity test in human esophageal cancer KYSE-150 (subcutaneous tumor block in nude mice); set-up: species or system BALB/C nude mice; settings: KYSE-150; 10 mg/kg, Ipx5 each week for 2 continuous weeks; d22
Protocol: as §5
as §6, with “esophageal cancer KYSE-150” for “stromal”, “tumor” for “tumor SHG44”

[8] = tested on: human gastric carcinoma MGC803; assay: In-vivo antitumor activity test in human gastric carcinoma MGC803 (subcutaneous tumor block in nude mice); set-up: species or system BALB/C nude mice; settings: MGC803; 10 mg/kg, Ipx5 each week for 2 continuous weeks; d22
Protocol: as §5
as §6, with “gastric carcinoma MGC803” for “stromal”, “tumor” for “tumor SHG44”

COc1cc(C(=O)NCCOCCOCCOCCOCCC(=O)N[C@@H](C(=O)N[C@@H](CCCNC(N)=O)C(=O)Nc2ccc(COC(=O)N3CCC(NC(=O)O[C@H]4CC[C@]5(C)C6CC[C@]7(C)[C@@H](c8ccc(=O)oc8)CC[C@]7(O)C6CC[C@@H]5C4)CC3)cc2)C(C)C)ccc1NC(=O)[C@@H]1N[C@@H](CC(C)(C)C)[C@](C#N)(c2ccc(Cl)cc2F)[C@H]1c1cccc(Cl)c1F (stereo partly shown) [Compound I-4]
IC50 [1]: 319 nM | IC50 [2]: 1670 nM | IC50 [3]: 1060 nM | Body weight of animals (After a tumor is removed) [4]: 26.10 ± 2.00 | IC50 ([5]; 72 h): 728 nM | IC50 ([6]; 72 h): 576 nM | Body weight of animals (After a tumor is removed) [7]: 24.99 ± 1.48 | Body weight of animals (After a tumor is removed) [8]: 24.95 ± 1.62

COc1cc(C(=O)NCCOCCOCCOCCOCCC(=O)N[C@@H](C(=O)N[C@@H](CCCNC(N)=O)C(=O)Nc2ccc(COC(=O)NC3=C(C)C(=O)C4=C(C3=O)[C@@H](COC(N)=O)[C@@]3(OC)[C@H]5N[C@H]5CN43)cc2)C(C)C)ccc1NC(=O)[C@@H]1N[C@@H](CC(C)(C)C)[C@](C#N)(c2ccc(Cl)cc2F)[C@H]1c1cccc(Cl)c1F [Compound I-6]
IC50 ([1]; MTT, Table 2, read-out: IC50 SHG44): > 50000 nM | IC50 ([2]; MTT, Table 2, read-out: IC50 MGC803): > 50000 nM | IC50 ([3]; MTT, Table 2, read-out: IC50 KYSE-150): 19400 nM | IC50 ([5]; CCK-8, 72 h, Table 1, read-out: IC50 HCT116): 542 nM | IC50 ([6]; CCK-8, 72 h, Table 1, read-out: IC50 SW1990): > 50000 nM

COc1cc(C(=O)NCCOCCOCCOCCOCCC(=O)NCC(=O)NCC(=O)N[C@@H](Cc2ccccc2)C(=O)NCC(=O)Nc2ccc(COC(=O)N3CCN(C(=O)O[C@H]4CC[C@@]5(C)[C@H](CC[C@@H]6[C@@H]5[C@H](O)C(=O)[C@]5(C)[C@@H](c7ccc(=O)oc7)CC[C@]65O)C4)CC3)cc2)ccc1NC(=O)[C@@H]1N[C@@H](CC(C)(C)C)[C@](C#N)(c2ccc(Cl)cc2F)[C@H]1c1cccc(Cl)c1F [Compound I-16]
IC50 [1]: 41 nM | IC50 [2]: 402 nM | IC50 [3]: 243 nM | Body weight of animals (After a tumor is removed) [4]: 25.13 ± 0.97 | IC50 ([5]; 72 h): 210 nM | IC50 ([6]; 72 h): 22 nM

COc1cc(C(=O)NCCOCCOCCOCCOCCC(=O)NCC(=O)NCC(=O)N[C@@H](Cc2ccccc2)C(=O)NCC(=O)Nc2ccc(COC(=O)N3CCC(NC(=O)O[C@H]4CC[C@]5(C)C6CC[C@]7(C)[C@@H](c8ccc(=O)oc8)CC[C@]7(O)C6CC[C@@H]5C4)CC3)cc2)ccc1NC(=O)[C@@H]1N[C@@H](CC(C)(C)C)[C@](C#N)(c2ccc(Cl)cc2F)[C@H]1c1cccc(Cl)c1F (stereo partly shown) [Compound I-17]
IC50 [1]: 204 nM | IC50 [2]: 1620 nM | IC50 [3]: 1890 nM | Body weight of animals (After a tumor is removed) [4]: 25.60 ± 0.98 | IC50 ([5]; 72 h): 898 nM | IC50 ([6]; 72 h): 287 nM
